# From US8287862B2, “Multidrug resistance-associated polypeptide” (Millennium Pharmaceuticals, Inc., priority 1997, dated 2012)
# Assays:
# [1] = tested on: MCF-7 human breast adenocarcinoma cell line; details: adriamycin-selected MDR MCF-7 vs parental MCF-7; cited from earlier work
# MRP-β host cells = details: versus source or control cells; 16-24 hours in culture
# Procedure: To establish this survival advantage, triplicate cultures of MRP-β host cells, control cells and source cells (e.g., MCF-7 human breast adenocarcinoma cells) are generated in 24-well cell culture plates. Once the cultures have attained at least 80% confluency, lethal or sub-lethal amounts of a cytotoxin (e.g., adriamycin, bisantrene) are added to each well. After a sufficient period of time for cytotoxic effects to be manifested (e.g., 16-24 hours in culture), culture media comprising the cytotoxic drug are aspirated or otherwise removed, and cells are stained with a vital dye such as Trypan blue. Which commercially available vital dye is used in this procedure is a matter of choice; thus, sulforodoamine B (see Powell et al. (1990), U.S. Pat. No. 5,550,149) could be used in lieu of Trypan blue. The number of cells that remain viable (e.g., capable of excluding the dye) are counted using a hemocytometer, flow cytometer or other appropriate device.
smiles,measurement,setting,value
COc1cccc2c1C(=O)c1c(O)c3c(c(O)c1C2=O)C[C@@](O)(C(=O)CO)C[C@@H]3O[C@H]1C[C@H](N)[C@H](O)[C@H](C)O1 [adriamycin],resistance of MDR derivative cell line relative to parental (wild-type) MCF-7,[1],192 fold
C(=N\NC1=NCCN1)/c1c2ccccc2c(/C=N/NC2=NCCN2)c2ccccc12 [bisantrene],survival of MRP-β expressing host cells on exposure to cytotoxin,MRP-β host cells,surviving exposure to otherwise lethal amounts
